Measured values as given in ChEMBL document CHEMBL1201862, “PubChem BioAssay data set” (2004).
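Exposure lasted 48 hours, with cells grown in 96-well plates and compounds tested at five concentrations. Here, GI50 denotes the concentration required for 50% inhibition of growth.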 Active and inactive are the calls of the source. Cut-off read from the data, not from the text of the source: active = GI50 up to about 1.1 µM and inactive = higher.

Experiments:
Assay in all cases: inhibition of tumour cell growth, NCI panel, 48 h
[1] = tested on: NCI-H226
[2] = tested on: HCT-116
[3] = tested on: COLO 205
[4] = tested on: M14
[5] = tested on: KM12
[6] = tested on: HL-60
[7] = tested on: LOX IMVI
[8] = tested on: CAKI-1
[9] = tested on: OVCAR-4
[10] = tested on: CCRF-CEM
[11] = tested on: SF-268
[12] = tested on: OVCAR-5
[13] = tested on: PC-3
[14] = tested on: ACHN
[15] = tested on: IGROV-1
[16] = tested on: UACC-62
[17] = tested on: SF-539
[18] = tested on: MDA-MB-435
[19] = tested on: HCT-15
[20] = tested on: SN12C
[21] = tested on: OVCAR-8
[22] = tested on: EKVX
[23] = tested on: BT-549
[24] = tested on: MDA-N
[25] = tested on: T47D
[26] = tested on: Hs-578T
[27] = tested on: SNB-75
[28] = tested on: MCF7
[29] = tested on: SR
[30] = tested on: SK-OV-3
[31] = tested on: SK-MEL-5
[32] = tested on: SK-MEL-2
[33] = tested on: K562
[34] = tested on: U-251
[35] = tested on: SK-MEL-28
[36] = tested on: HOP-92
[37] = tested on: SNB-19
[38] = tested on: HT-29
[39] = tested on: UO-31
[40] = tested on: 786-0
[41] = tested on: NCI-H460
[42] = tested on: NCI-H522
[43] = tested on: TK-10
[44] = tested on: NCI-H23
[45] = tested on: NCI/ADR-RES
[46] = tested on: UACC-257
[47] = tested on: Malme-3M
[48] = tested on: A498
[49] = tested on: SF-295
[50] = tested on: A549
[51] = tested on: SW-620
[52] = tested on: MDA-MB-231
[53] = tested on: DU-145
[54] = tested on: HCC 2998
[55] = tested on: RPMI-8226
[56] = tested on: OVCAR-3
[57] = tested on: HOP-62
[58] = tested on: MOLT-4
[59] = tested on: RXF 393

In the case of `CCN1CC2(COC)C(O)CC(OC)C34C5CC6(O)C(OC)C=C(C5C6OC(=O)c5ccc(OC)c(OC)c5)C(C(OC)C23)C14` (centres undefined), the GI50 [1] is reported as > 7.5 µM (inactive), the GI50 [2] is reported as > 7.5 µM (inactive) and the GI50 [3] is reported as > 7.5 µM (inactive). For the same compound, the GI50 [4] was > 7.5 µM (inactive), the GI50 [5] was > 7.5 µM (inactive) and the GI50 [6] was > 7.5 µM (inactive). The GI50 [7] was > 7.5 µM (inactive), the GI50 [8] was > 7.5 µM (inactive) and the GI50 [9] was > 7.5 µM (inactive). For the same compound, the GI50 [10] was > 7.5 µM (inactive), the GI50 [11] was > 7.5 µM (inactive) and the GI50 [12] was > 7.5 µM (inactive). The GI50 [13] was > 7.5 µM (inactive), the GI50 [14] was > 7.5 µM (inactive) and the GI50 [15] was > 7.5 µM (inactive). The GI50 [16] was > 7.5 µM (inactive), the GI50 [17] was > 7.5 µM (inactive) and the GI50 [18] was > 7.5 µM (inactive). The GI50 [19] was over 7.5 µM, the GI50 [20] was > 7.5 µM (inactive) and the GI50 [21] was > 7.5 µM (inactive). The GI50 [22] was > 7.5 µM (inactive), the GI50 [23] was > 7.5 µM (inactive) and the GI50 [24] was > 7.5 µM (inactive). The GI50 [25] was > 7.5 µM (inactive), the GI50 [26] was > 7.5 µM (inactive) and the GI50 [27] was 4.51 µM (inactive). The GI50 [28] was > 7.5 µM (inactive), the GI50 [29] was > 7.5 µM (inactive) and the GI50 [30] was > 7.5 µM (inactive). The GI50 [31] was > 7.5 µM (inactive), the GI50 [32] was > 7.5 µM (inactive) and the GI50 [33] was > 7.5 µM (inactive). For the same compound, the GI50 [34] was > 7.5 µM (inactive), the GI50 [35] was > 7.5 µM (inactive) and the GI50 [36] was > 7.5 µM (inactive). The GI50 [37] was > 7.5 µM (inactive), the GI50 [38] was > 7.5 µM (inactive) and the GI50 [39] was > 7.5 µM (inactive). The GI50 [40] was > 7.5 µM (inactive), the GI50 [41] was > 7.5 µM (inactive) and the GI50 [42] was > 7.5 µM (inactive). The GI50 [43] was > 7.5 µM (inactive), the GI50 [44] was > 7.5 µM (inactive) and the GI50 [45] was > 7.5 µM (inactive). The GI50 [46] was > 7.5 µM (inactive), the GI50 [47] was > 7.5 µM (inactive) and the GI50 [48] was > 7.5 µM (inactive). For the same compound, the GI50 [49] was > 7.5 µM (inactive), the GI50 [50] was > 7.5 µM (inactive) and the GI50 [51] was > 7.5 µM (inactive). The GI50 [52] was > 7.5 µM (inactive), the GI50 [53] was > 7.5 µM (inactive) and the GI50 [54] was > 7.5 µM (inactive).

With `Cc1cc2c(cc1-c1cc3c(cc1C)C(C(C)C)=C(O)C(=O)/C3=C\Nc1nc(-c3ccccc3)cs1)/C(=C/Nc1nc(-c3ccccc3)cs1)C(=O)C(O)=C2C(C)C` the GI50 [1] was 22.2 µM (inactive), the GI50 [2] was 8.61 µM (inactive) and the GI50 [3] was 31.6 µM (inactive). The GI50 [4] was 12.9 µM (inactive), the GI50 [5] was 32.1 µM (inactive) and the GI50 [6] was 25.7 µM (inactive). The GI50 [8] was 35.7 µM (inactive), the GI50 [9] was 30.8 µM (inactive) and the GI50 [10] was 12.6 µM (inactive). For the same compound, the GI50 [11] was 24.6 µM (inactive), the GI50 [12] was > 10 µM (inactive) and the GI50 [13] was 15.7 µM (inactive). The GI50 [14] was 14.9 µM (inactive), the GI50 [15] was 16.8 µM (inactive) and the GI50 [16] was 16.7 µM (inactive). For the same compound, the GI50 [17] was 18.2 µM (inactive), the GI50 [18] was 16.9 µM (inactive) and the GI50 [19] was 25.4 µM. The GI50 [20] was 22.3 µM (inactive), the GI50 [21] was 25.6 µM (inactive) and the GI50 [22] was 18.2 µM (inactive). For the same compound, the GI50 [23] was 23.8 µM (inactive), the GI50 [24] was 41.1 µM (inactive) and the GI50 [25] was 31.9 µM (inactive). For the same compound, the GI50 [26] was 37.3 µM (inactive), the GI50 [27] was 35.4 µM (inactive) and the GI50 [28] was 18.1 µM (inactive). For the same compound, the GI50 [29] was 32.5 µM (inactive), the GI50 [30] was 21.1 µM (inactive) and the GI50 [31] was 16.7 µM (inactive). For the same compound, the GI50 [32] was 21 µM (inactive), the GI50 [33] was 11.7 µM (inactive) and the GI50 [34] was 14.4 µM (inactive). The GI50 [35] was 16.8 µM (inactive), the GI50 [36] was 18.8 µM (inactive) and the GI50 [55] was 33.9 µM (inactive). The GI50 [37] was 17.1 µM (inactive), the GI50 [38] was 22.2 µM (inactive) and the GI50 [39] was > 10 µM (inactive). For the same compound, the GI50 [40] was 21.8 µM (inactive), the GI50 [56] was 15.3 µM (inactive) and the GI50 [41] was 18.2 µM (inactive). The GI50 [44] was 15.5 µM (inactive), the GI50 [57] was 15.2 µM (inactive) and the GI50 [45] was 26.1 µM (inactive). For the same compound, the GI50 [46] was 21.8 µM (inactive), the GI50 [58] was 35.7 µM (inactive) and the GI50 [47] was 33.8 µM (inactive). The GI50 [48] was 35.6 µM (inactive), the GI50 [49] was 15.6 µM (inactive) and the GI50 [50] was 19.1 µM (inactive). The GI50 [51] was 15.6 µM (inactive), the GI50 [59] was 15.3 µM (inactive) and the GI50 [52] was 10.8 µM (inactive). The GI50 [53] was 23.7 µM (inactive).
